Experimental data taken from US8791100B2 (Novartis AG, priority 2010, dated 2014).

Assays:
[1] = test system: peripheral lymphocyte counts; experiment: Measurement of circulating lymphocytes after oral administration (mice); assay type: in vivo; settings: Mus musculus, C57BL/6NCrl mice, 30 mg/kg p.o., 24 hours, vs mean counts of untreated animals, mean ± STDEV, read-out: Residual Lymphocyte Counts 24 hours after p.o. dosing
Description: The compounds of the invention, e.g. compounds of formula (I) typically induce the depletion of blood lymphocyte as may be determined in the assay described below. Moreover, compounds of the invention, e.g. compounds of formula (I) are typically efficacious in the said assay also when administered via the per oral route of administration.
Measurement of Circulating Lymphocytes:
The test compounds (or salts thereof) are dissolved in a vehicle such as water, saline, PEG (polyethylene glycol) 200, or PBS (phosphate buffered saline). Adult mice (C57BU6NCrl strain, female, 18-20 g) or rats (Lewis strain, male, 6-12 weeks old) are administered up to 60 mg/kg of the test compounds in 10 ml/kg (C57BU6NCrl mice) or 2 ml/kg (Lewis rats) vehicle via per oral application. The vehicle or a reference salt and FTY720 (0.3 mg/kg) are used as negative and positive controls, respectively. Blood is collected from the sublingual vein at single time points, e.g. 14 or 24 hours after the test compound administration, under short isoflurane anesthesia. Two to three animals are used in each group. Whole blood samples are subjected to hematology analysis. Peripheral lymphocyte counts are determined using an automated analyzer. The Haemathology System uses a combination of light scatter, cytochemical staining and nuclear density on two independent channels to measure the total and differential white cell counts. The reduction of lymphocytes provoked by each test compound is calculated by comparing the lymphocyte counts measured after each treatment to the mean lymphocyte counts measured in five to eight untreated mice or rats, respectively. The data are presented as mean±STDEV.

human S1P1 receptors = human S1P1 receptors (Homo sapiens (Human), UniProt P21453); experiment: Human S1P1 Receptor Calcium FLIPR Antagonist Assay (HeLa Gα16 S1P1); assay type: cell-based; settings: relative antagonism vs probing agonist GNF-AC-1 at EC80, HeLa-S1P1/Gα16 cells
Sequence of human S1P1 receptors (P21453 whole entry): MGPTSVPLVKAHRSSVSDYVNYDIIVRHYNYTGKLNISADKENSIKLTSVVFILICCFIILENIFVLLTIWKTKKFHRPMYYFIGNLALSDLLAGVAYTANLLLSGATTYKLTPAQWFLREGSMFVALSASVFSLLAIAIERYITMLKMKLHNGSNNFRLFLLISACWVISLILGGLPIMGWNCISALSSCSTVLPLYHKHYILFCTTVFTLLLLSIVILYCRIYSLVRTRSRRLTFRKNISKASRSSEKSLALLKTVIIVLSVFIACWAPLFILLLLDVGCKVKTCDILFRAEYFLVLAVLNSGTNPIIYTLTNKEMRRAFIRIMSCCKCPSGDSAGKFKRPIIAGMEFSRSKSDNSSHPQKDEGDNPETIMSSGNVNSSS
Source text: Human S1P1 Receptor Calcium FLIPR Antagonist Assay
The assay measures intracellular changes of Ca^2+ mediated by the synthetic probing agonist 3-{[2-(2-Trifluoromethyl-biphenyl-4-yl)-benzo[b]thiophen-5-ylmethyl]-amino}-propionic acid (GNF-AC-1) in the HeLa-S1P1/Gα16 cell clone 1: HeLa (human cervix carcinoma, ATCC CCL2) cells stably expressing N-terminally myc-tagged human S1P1 receptors (GenBank™ accession No. NM_001400; UNIPROT P21453) and promiscuous Gα16 protein (GenBank™ accession number M63904, Swissprot P30679) are cultured at 37° C., 5% CO2, and 95% relative humidity. The cells are plated in 384 well black plates (10′000 cells per well). After 24 hours the cells are loaded with Fluo-4-AM (1.6 μM in HBSS and 2.5 mM probenicid) for 1 hour at 37° C. After washing, the cells are transferred to the FLIPR. The test compounds are added at different concentrations (≦100 μM) in HBSS in the presence of 0.1% BSA and changes in fluorescence are recorded (indication of agonism). The probing agonist is added 20-30 minutes afterwards to the wells at a concentration giving 80% of the maximal activity (EC80). After each addition, time points are collected as follows: 20 time points (2 seconds) before the addition of the agonist (Fmin) and 60 time points (1 or 2 seconds) after the addition of the probing agonist. This allows the determination of the maximal fluorescence (Fmax). The ratio (Fmax−Fmin)/Fmin is plotted against the log of the concentration of the test compounds and the IC50 (relative antagonism) is calculated using the XLfit-4 software. […] A concentration-response curve of the probing agonist is determined on each plate in parallel.

IC50 (human S1P1 receptors) | SMILES | response vs control in vivo at 30 mg/kg [1]
1 nM | Cc1cc([C@H](Nc2ccc(C)c(CN3CC[C@@H](C(=O)O)C3)c2)C(F)(F)F)ccc1Cl [Example 21, (R)-1-{5-[(S)-1-(4-Chloro-3-methyl-phenyl)-2,22-trifluoro-ethylamino]-2-methyl-benzyl}-pyrrolidine-3-carboxylic acid] | 17.8%
1 nM | CC[C@@H](Nc1ccc(C)c(CN2CC[C@@H](C(=O)O)C2)c1)c1ccc(Cl)c(C)c1 [Example 23, (R)-1-{5-[(R)-1-(4-Chloro-3-methyl-phenyl)-propylamino]-2-methyl-benzyl}-pyrrolidine-3-carboxylic acid] | 25.1%
0.4 nM | Cc1cc([C@H](Nc2ccc(Cl)c(CN3CC[C@@H](C(=O)O)C3)c2)C(F)(F)F)ccc1Cl [Example 29, (R)-1-{2-Chloro-5-[(S)-1-(4-chloro-3-methyl-phenyl)-2,2,2-trifluoro-ethylamino]-benzyl}-pyrrolidine-3-carboxylic acid] | 35.6%
1 nM | Cc1cc([C@H](Nc2ccc(C)c(CN3CC(C(=O)O)C3)c2C)C(F)(F)F)ccc1Cl [Example 31, 1-{3-[(S)-1-(4-Chloro-3-methyl-phenyl)-2,2,2-trifluoro-ethylamino]-2,6-dimethyl-benzyl}-azetidine-3-carboxylic acid] | 23.4%
0.9 nM | CC[C@@H](Nc1cc(CN2CC(C(=O)O)C2)c(F)cn1)c1ccc(Cl)c(C)c1 [Example 54, 1-{2-[(R)-1-(4-Chloro-3-methyl-phenyl)-propylamino]-5-fluoro-pyridin-4-ylmethyl}-azetidine-3-carboxylic acid] | –
2.4 nM | CC[C@@H](Nc1cc(CN2CCC(C)(C(=O)O)C2)c(Cl)cn1)c1ccc(Cl)c(C)c1 (stereo partly drawn) [Example 57, 1-{5-Chloro-2-[(R)-1-(4-chloro-3-methyl-phenyl)-propylamino]-pyridin-4-ylmethyl}-3-methyl-pyrrolidine-3-carboxylic acid] | –
0.1 nM | CC[C@@H](Nc1cc(CNCCC(=O)O)c(Cl)cn1)c1ccc(Cl)c(C)c1 [Example 58, 3-({5-Chloro-2-[(R)-1-(4-chloro-3-methyl-phenyl)-propylamino]-pyridin-4-ylmethyl}-amino)-propionic acid] | –
2.1 nM | CC[C@@H](Nc1cc(CN2CC[C@@H](C(=O)O)C2)c(C)cn1)c1ccc(Cl)c(C)c1 [Example 60, (R)-1-{2-[(R)-1-(4-Chloro-3-methyl-phenyl)-propylamino]-5-methyl-pyridin-4-ylmethyl}-pyrrolidine-3-carboxylic acid] | –
1.1 nM | Cc1cc([C@H](Nc2ccc(Cl)c(CN3CC(C(=O)O)C3)c2)C(C)C)ccc1Cl [Example 63, 1-{2-Chloro-5-[(R)-1-(4-chloro-3-methyl-phenyl)-2-methyl-propylamino]-benzyl}-azetidine-3-carboxylic acid] | –
1.7 nM | Cc1cc([C@H](Nc2ccc(Cl)c(CN3CC(C(=O)O)C3)c2)C(C)C)cc(C)c1Cl [Example 64, 1-{2-Chloro-5-[(R)-1-(4-chloro-3,5-dimethyl-phenyl)-2-methyl-propylamino]-benzyl}-azetidine-3-carboxylic acid] | –
– | CC[C@@H](Nc1ccc(Cl)c(CN2CC(C)(C(=O)O)C2)c1)c1cc(C)c(Cl)c(C)c1 [Example 66, 1-{2-Chloro-5-[(R)-1-(4-chloro-3,5-dimethyl-phenyl)-propylamino]-benzyl}-3-methyl-azetidine-3-carboxylic acid] | 19.4%
0.8 nM | Cc1cc([C@H](Nc2cccc(CN3CC(C(=O)O)C3)c2)C(F)(F)F)ccc1Cl [Example 67, 1-{3-[(S)-1-(4-Chloro-3-methyl-phenyl)-2,2,2-trifluoro-ethylamino]-benzyl}-azetidine-3-carboxylic acid] | –
0.7 nM | Cc1cc([C@H](Nc2ccc(Cl)c(CN3CC(C(=O)O)C3)c2)C(F)(F)F)ccc1Cl [Example 68] | –
0.8 nM | Cc1cc([C@H](Nc2ccc(C(F)(F)F)c(CN3CC(C(=O)O)C3)c2)C(F)(F)F)ccc1Cl [Example 69, 1-{5-[(S)-1-(4-Chloro-3-methyl-phenyl)-2,2,2-trifluoro-ethylamino]-2-trifluoromethyl-benzyl}-azetidine-3-carboxylic acid] | –
1.1 nM | Cc1cc([C@H](Nc2ccc(Cl)c(CN3CCC(C(=O)O)C3)c2)C(F)(F)F)ccc1Cl (stereo partly drawn) [Example 72, 1-{2-Chloro-5-[(S)-1-(4-chloro-3-methyl-phenyl)-2,2,2-trifluoro-ethylamino]-benzyl}-pyrrolidine-3-carboxylic acid] | –
14.1 nM | CC[C@@H](Nc1cccc(CN2CC(C(=O)O)C2)n1)c1ccc(Cl)c(C)c1 [Example 74, 1-{6-[(R)-1-(4-Chloro-3-methyl-phenyl)-propylamino]-pyridin-2-ylmethyl}-azetidine-3-carboxylic acid] | –
2.8 nM | CC[C@@H](Nc1cc(CN2CC(C(=O)O)C2)ccn1)c1ccc(Cl)c(C)c1 [Example 75, 1-{2-[(R)-1-(4-Chloro-3-methyl-phenyl)-propylamino]-pyridin-4-ylmethyl}-azetidine-3-carboxylic acid] | –
5.7 nM | Cc1cc([C@H](Nc2cccc(CN3CC(C(=O)O)C3)c2)C2CCC2)ccc1Cl [Example 76, 1-(3-{[(R)-(4-Chloro-3-methyl-phenyl)-cyclobutyl-methyl]-amino}-benzyl)-azetidine-3-carboxylic acid] | –
0.8 nM | CC[C@@H](Nc1ccnc(CN2CC(C(=O)O)C2)c1)c1ccc(Cl)c(C)c1 [Example 78, 1-{4-[(R)-1-(4-Chloro-3-methyl-phenyl)-propylamino]-pyridin-2-ylmethyl}-azetidine-3-carboxylic acid] | –
0.6 nM | CC[C@@H](Nc1cc(CN2CC(C(=O)O)C2)c(Cl)cn1)c1ccc(Cl)c(C)c1 [Example 79, 1-{5-Chloro-2-[(R)-1-(4-chloro-3-methyl-phenyl)-propylamino]-pyridin-4-ylmethyl}-azetidine-3-carboxylic acid] | –
24.5 nM | CC[C@@H](Nc1ccc(C)c(CNCC(C)(C)C(=O)O)c1)c1cc(C)c(Cl)c(C)c1 [Example 80, 3-{5-[(R)-1-(4-Chloro-3,5-dimethyl-phenyl)-propylamino]-2-methyl-benzylamino}-2,2-dimethyl-propionic acid] | –
3.9 nM | CC[C@@H](Nc1ccc(C)c(CNC[C@H](C)C(=O)O)c1)c1cc(C)c(Cl)c(C)c1 [Example 81, (S)-3-{5-[(R)-1-(4-Chloro-3,5-dimethyl-phenyl)-propylamino]-2-methyl-benzylamino}-2-methyl-propionic acid] | –
3 nM | CC[C@@H](Nc1ccc(C)c(CN(C)CCC(=O)O)c1)c1cc(C)c(Cl)c(C)c1 [Example 82, 3-({5-[(R)-1-(4-Chloro-3,5-dimethyl-phenyl)-propylamino]-2-methyl-benzyl}-methyl-amino)-propionic acid] | –
2.9 nM | Cc1cc([C@H](Nc2ccc(C)c(CN3CCC(C)(C(=O)O)C3)c2)C(F)(F)F)ccc1Cl (stereo partly drawn) [Example 83, 1-{5-[(S)-1-(4-Chloro-3-methyl-phenyl)-2,2,2-trifluoro-ethylamino]-2-methyl-benzyl}-3-methyl-pyrrolidine-3-carboxylic acid] | –
